Test results: PubChem BioAssay (NCI)
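Dose response: 5 concentrations. Exposure: 48 h. Format: 96-well plates. Endpoint: linear interpolation; highest concentration if not reached. GI50 is the concentration that inhibits growth by half. TGI: concentration producing complete growth inhibition.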

Columns and labels:
Experiment in all cases: NCI anticancer screen, dose series, 48 h
[1] = tested on: SK-OV-3 ovarian
[2] = tested on: K-562 leukemia
[3] = tested on: OVCAR-3 ovarian
[4] = tested on: SF-539 CNS
[5] = tested on: IGROV1 ovarian
[6] = tested on: HL-60(TB) leukemia
[7] = tested on: RXF 393 renal
[8] = tested on: SF-295 CNS
[9] = tested on: SR leukemia
[10] = tested on: LOX IMVI melanoma
[11] = tested on: SF-268 CNS
[12] = tested on: UO-31 renal
[13] = tested on: HT29 colon
[14] = tested on: DU-145 prostate
[15] = tested on: HCT-116 colon
[16] = tested on: T-47D breast
[17] = tested on: EKVX NSCLC
[18] = tested on: MALME-3M melanoma
[19] = tested on: COLO 205 colon
[20] = tested on: SN12C renal
[21] = tested on: TK-10 renal
[22] = tested on: SK-MEL-5 melanoma
[23] = tested on: CAKI-1 renal
[24] = tested on: HCT-15 colon
[25] = tested on: OVCAR-5 ovarian
[26] = tested on: NCI-H226 lung
[27] = tested on: SNB-75 CNS
[28] = tested on: RPMI-8226 leukemia
[29] = tested on: HOP-92 NSCLC
[30] = tested on: M14 melanoma
[31] = tested on: NCI/ADR-RES ovarian
[32] = tested on: MDA-MB-468 breast
[33] = tested on: HOP-62 NSCLC
[34] = tested on: U251 CNS
[35] = tested on: KM12 colon
[36] = tested on: NCI-H522 lung
[37] = tested on: ACHN renal
[38] = tested on: SW-620 colon
[39] = tested on: NCI-H23 lung
[40] = tested on: A498 renal
[41] = tested on: NCI-H460 lung
[42] = tested on: MOLT-4 leukemia
[43] = tested on: MCF7 breast
[44] = tested on: BT-549 breast
[45] = tested on: MDA-MB-435
[46] = tested on: UACC-62 melanoma
[47] = tested on: UACC-257 melanoma
[48] = tested on: CCRF-CEM leukemia
[49] = tested on: OVCAR-8 ovarian
[50] = tested on: MDA-MB-231 breast
[51] = tested on: SNB-19 CNS
[52] = tested on: A549 NSCLC
[53] = tested on: SK-MEL-28 melanoma
[54] = tested on: HS 578T breast
[55] = tested on: HCC-2998 colon
[56] = tested on: OVCAR-4 ovarian
[57] = tested on: PC-3 prostate
[58] = tested on: 786-0 renal
[59] = tested on: SK-MEL-2 melanoma

COc1ccc(CN2[C@@H](C(=O)NCc3ccc(C(=O)NO)cc3)Cc3c([nH]c4ccccc34)[C@@H]2C2CC2)cc1
GI50 [1]: 2.87 µM | TGI [1]: 6.97 µM | GI50 [2]: 1.67 µM | TGI [2]: > 19.8 µM | GI50 [3]: 3.41 µM | TGI [3]: 14.7 µM | GI50 [4]: 2.48 µM | TGI [4]: 5.71 µM | GI50 [5]: 2.6 µM | TGI [5]: 5.78 µM | GI50 [6]: 2.73 µM | TGI [6]: > 19.8 µM | GI50 [7]: 0.797 µM | TGI [7]: 4.09 µM | GI50 [8]: 2.92 µM | TGI [8]: 6.05 µM | GI50 [9]: > 19.8 µM | TGI [9]: > 19.8 µM | GI50 [10]: 2.37 µM | TGI [10]: 4.81 µM | GI50 [11]: 4.4 µM | TGI [11]: 13 µM | GI50 [12]: 3 µM | TGI [12]: 5.72 µM | GI50 [13]: 4.84 µM | TGI [13]: > 19.8 µM | GI50 [14]: 4.38 µM | TGI [14]: > 19.8 µM | GI50 [15]: 2.08 µM | TGI [15]: > 19.8 µM | GI50 [16]: 3.82 µM | TGI [16]: 12.6 µM | GI50 [17]: 3.2 µM | TGI [17]: 10.9 µM | GI50 [18]: 0.847 µM | TGI [18]: 4.17 µM | GI50 [19]: 3.47 µM | TGI [19]: 8.03 µM | GI50 [20]: 3.86 µM | TGI [20]: 13.4 µM | GI50 [21]: 3.17 µM | TGI [21]: 10.1 µM | GI50 [22]: 2.6 µM | TGI [22]: 5.25 µM | GI50 [23]: 2.39 µM | TGI [23]: 6.73 µM | GI50 [24]: 3.75 µM | TGI [24]: 10.5 µM | GI50 [25]: 1.87 µM | TGI [25]: 6.05 µM | GI50 [26]: 3.41 µM | TGI [26]: 10.1 µM | GI50 [27]: 1.13 µM | TGI [27]: 5.68 µM | GI50 [28]: 2.92 µM | TGI [28]: > 19.8 µM | GI50 [29]: 2.62 µM | TGI [29]: 6.65 µM | GI50 [30]: 4.07 µM | TGI [30]: > 19.8 µM | GI50 [31]: 4.05 µM | TGI [31]: 13.8 µM | GI50 [32]: 1 µM | TGI [32]: 4.34 µM | GI50 [33]: 3.48 µM | TGI [33]: 8.58 µM | GI50 [34]: 2.67 µM | TGI [34]: 6.78 µM | GI50 [35]: 3.51 µM | TGI [35]: 16.7 µM | GI50 [36]: 0.964 µM | TGI [36]: 5.06 µM | GI50 [37]: 3.52 µM | TGI [37]: 9.33 µM | GI50 [38]: 2.26 µM | TGI [38]: 8.03 µM | GI50 [39]: 2.75 µM | TGI [39]: 5.77 µM | GI50 [40]: 2.77 µM | TGI [40]: 7.99 µM | GI50 [41]: 3.14 µM | TGI [41]: 9.21 µM | GI50 [42]: 1.85 µM | TGI [42]: > 19.8 µM | GI50 [43]: 2.33 µM | TGI [43]: 12 µM | GI50 [44]: 4.99 µM | TGI [44]: 9.96 µM | GI50 [45]: 0.638 µM | TGI [45]: 2.67 µM | GI50 [46]: 1.55 µM | TGI [46]: 4.6 µM | GI50 [47]: 2.39 µM | TGI [47]: 9.74 µM | GI50 [48]: 0.996 µM | TGI [48]: > 19.8 µM | GI50 [49]: 2.56 µM | TGI [49]: 9.71 µM | GI50 [50]: 2.43 µM | TGI [50]: 7.52 µM | GI50 [51]: 2.89 µM | TGI [51]: 6.8 µM | GI50 [52]: 3.54 µM | TGI [52]: 9.02 µM | GI50 [53]: 1.98 µM | TGI [53]: 5.88 µM | GI50 [54]: 1.85 µM | TGI [54]: 14.4 µM | GI50 [55]: 2.6 µM | TGI [55]: 5.59 µM | GI50 [56]: 4.74 µM | TGI [56]: > 19.8 µM | GI50 [57]: 3.12 µM | TGI [57]: > 19.8 µM | GI50 [58]: 3.98 µM | TGI [58]: 13 µM | GI50 [59]: 4.11 µM | TGI [59]: 12 µM
